Values joined by “and” are separate entries in the source; they are usually repeats but may differ in a detail not shown here. Equal values may be shown once. Inconclusive results and toxic doses are left out. The calls were made as follows: active = survival T/C of 150% or more; inactive = T/C below 125% in these data.
Tested on: P388 leukemia ip, CD2F1 mice, survival T/C
Assay: NCI In Vivo Anticancer Drug Screen. Data for tumor model P388 Leukemia (intraperitoneal) in CD2F1 (CDF1) mice
Settings: endpoint: median survival time, higher = longer survival
Outline: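 Mice carrying the transplanted tumor received test compound or vehicle. Survival was recorded in each group, and the value is the treated-group measurement divided by that of the vehicle-treated control group.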

Measured: T/C

O=C1c2c(O)ccc(O)c2C(=O)c2c(NCCNCCO)ccc(NCCNCCO)c21
inactive: dose: 0.02 mg/kg/injection, schedule: Q04DX003 (ip), vehicle: saline 120 % of control | dose: 0.32 mg/kg/injection, schedule: Q01DX009 (sc), vehicle: acid diluted with saline 122 % of control | dose: 0.5 mg/kg/injection, schedule: Q01DX005 (iv), vehicle: acid diluted with saline 99 % of control | dose: 0.75 mg/kg/injection, schedule: Q04DX003 (ip), vehicle: acid diluted with saline 123 % of control | dose: 3.0 mg/kg/injection, schedule: Q01DX009 (ip), vehicle: acid diluted with saline 102 % of control | dose: 4.0 mg/kg/injection, schedule: Q01DX001 (iv), vehicle: acid diluted with saline 117 % of control | dose: 4.0 mg/kg/injection, schedule: Q01DX009 (ip), vehicle: other 99 % of control | dose: 8.0 mg/kg/injection, schedule: Q04DX003 (ip), vehicle: acid diluted with saline 107 % of control | dose: 8.0 mg/kg/injection, schedule: Q04DX003 (iv), vehicle: acid diluted with saline 99 % of control | dose: 12.0 mg/kg/injection, schedule: Q04DX002 (ip), vehicle: acid diluted with saline 118 % of control | dose: 16.0 mg/kg/injection, schedule: Q01DX001 (iv), vehicle: acid diluted with saline 101 % of control | dose: 16.0 mg/kg/injection, schedule: Q04DX003 (ip), vehicle: saline 101 % of control and 117 % of control | dose: 32.0 mg/kg/injection, schedule: Q04DX003 (ip), vehicle: saline 100 % of control | dose: 7.0 micrograms/kg/injection, schedule: Q04DX003 (ip), vehicle: saline 107 % of control | dose: 15.0 micrograms/kg/injection, schedule: Q04DX003 (ip), vehicle: saline 107 % of control | dose: 31.0 micrograms/kg/injection, schedule: Q04DX003 (ip), vehicle: saline 120 % of control
active: dose: 0.06 mg/kg/injection, schedule: Q01DX009 (ip), vehicle: saline 175 % of control and 208 % of control | dose: 0.06 mg/kg/injection, schedule: Q04DX003 (ip), vehicle: saline 218 % of control | dose: 0.12 mg/kg/injection, schedule: Q01DX009 (ip), vehicle: acid diluted with saline 179 % of control and 190 % of control | dose: 0.12 mg/kg/injection, schedule: Q01DX009 (ip), vehicle: other 165 % of control | dose: 0.12 mg/kg/injection, schedule: Q01DX009 (ip), vehicle: saline 200 % of control and 220 % of control | dose: 0.12 mg/kg/injection, schedule: Q04DX003 (ip), vehicle: saline 160 % of control | dose: 0.13 mg/kg/injection, schedule: Q01DX009 (ip), vehicle: acid diluted with saline 150 % of control and 176 % of control | dose: 0.2 mg/kg/injection, schedule: Q01DX009 (ip), vehicle: acid diluted with saline 250 % of control | dose: 0.2 mg/kg/injection, schedule: Q01DX009 (ip), vehicle: water 172 % of control | dose: 0.25 mg/kg/injection, schedule: Q01DX005 (ip), vehicle: acid diluted with saline 270 % of control | dose: 0.25 mg/kg/injection, schedule: Q04DX003 (ip), vehicle: saline 182 % of control | dose: 0.32 mg/kg/injection, schedule: Q01DX009 (ip), vehicle: acid diluted with saline 225 % of control | dose: 0.39 mg/kg/injection, schedule: Q01DX009 (ip), vehicle: acid diluted with saline 272 % of control | dose: 0.39 mg/kg/injection, schedule: Q01DX009 (ip), vehicle: water 245 % of control | dose: 0.5 mg/kg/injection, schedule: Q01DX005 (ip), vehicle: acid diluted with saline 270 % of control | dose: 0.5 mg/kg/injection, schedule: Q01DX009 (ip), vehicle: other 238 % of control and 333 % of control | dose: 0.5 mg/kg/injection, schedule: Q04DX003 (ip), vehicle: saline 179 % of control | dose: 0.54 mg/kg/injection, schedule: Q01DX009 (ip), vehicle: acid diluted with saline 234 % of control | dose: 0.54 mg/kg/injection, schedule: Q01DX009 (sc), vehicle: acid diluted with saline 153 % of control | dose: 0.75 mg/kg/injection, schedule: Q04DX002 (ip), vehicle: acid diluted with saline 209 % of control | dose: 0.78 mg/kg/injection, schedule: Q01DX009 (ip), vehicle: water 271 % of control | dose: 0.78 mg/kg/injection, schedule: Q04DX003 (ip), vehicle: acid diluted with saline 409 % of control | dose: 0.9 mg/kg/injection, schedule: Q01DX009 (ip), vehicle: acid diluted with saline 405 % of control | dose: 0.9 mg/kg/injection, schedule: Q01DX009 (sc), vehicle: acid diluted with saline 216 % of control | dose: 1.0 mg/kg/injection, schedule: Q01DX005 (ip), vehicle: acid diluted with saline 270 % of control | dose: 1.0 mg/kg/injection, schedule: Q04DX003 (ip), vehicle: saline 151 % of control and 188 % of control and 208 % of control | dose: 1.04 mg/kg/injection, schedule: Q04DX003 (ip), vehicle: acid diluted with saline 252 % of control | dose: 1.04 mg/kg/injection, schedule: Q04DX003 (iv), vehicle: acid diluted with saline 162 % of control | dose: 1.08 mg/kg/injection, schedule: Q01DX009 (ip), vehicle: acid diluted with saline 409 % of control | dose: 1.3 mg/kg/injection, schedule: Q04DX003 (ip), vehicle: acid diluted with saline 302 % of control | dose: 1.5 mg/kg/injection, schedule: Q01DX009 (ip), vehicle: acid diluted with saline 405 % of control | dose: 1.5 mg/kg/injection, schedule: Q01DX009 (sc), vehicle: acid diluted with saline 272 % of control | dose: 1.5 mg/kg/injection, schedule: Q04DX002 (ip), vehicle: acid diluted with saline 176 % of control and 201 % of control | dose: 1.56 mg/kg/injection, schedule: Q01DX009 (ip), vehicle: water 218 % of control | dose: 1.73 mg/kg/injection, schedule: Q04DX003 (ip), vehicle: acid diluted with saline 333 % of control | dose: 1.73 mg/kg/injection, schedule: Q04DX003 (iv), vehicle: acid diluted with saline 227 % of control | dose: 1.8 mg/kg/injection, schedule: Q01DX009 (ip), vehicle: acid diluted with saline 225 % of control | dose: 2.0 mg/kg/injection, schedule: Q01DX009 (ip), vehicle: other 207 % of control | dose: 2.0 mg/kg/injection, schedule: Q04DX003 (ip), vehicle: saline 164 % of control and 172 % of control and 207 % of control | dose: 2.5 mg/kg/injection, schedule: Q01DX009 (ip), vehicle: acid diluted with saline 180 % of control | dose: 2.88 mg/kg/injection, schedule: Q04DX003 (ip), vehicle: acid diluted with saline 333 % of control | dose: 3.0 mg/kg/injection, schedule: Q01DX001 (ip), vehicle: acid diluted with saline 333 % of control | dose: 3.0 mg/kg/injection, schedule: Q04DX002 (ip), vehicle: acid diluted with saline 260 % of control and 288 % of control | dose: 3.24 mg/kg/injection, schedule: Q01DX001 (iv), vehicle: acid diluted with saline 178 % of control | dose: 3.3 mg/kg/injection, schedule: Q01DX001 (ip), vehicle: acid diluted with saline 247 % of control | dose: 4.0 mg/kg/injection, schedule: Q01DX001 (ip), vehicle: acid diluted with saline 187 % of control | dose: 4.0 mg/kg/injection, schedule: Q04DX003 (ip), vehicle: saline 166 % of control and 223 % of control and 233 % of control | dose: 4.4 mg/kg/injection, schedule: Q01DX001 (ip), vehicle: acid diluted with saline 229 % of control | dose: 4.8 mg/kg/injection, schedule: Q04DX003 (ip), vehicle: acid diluted with saline 180 % of control | dose: 5.0 mg/kg/injection, schedule: Q01DX001 (ip), vehicle: other 250 % of control | dose: 5.4 mg/kg/injection, schedule: Q01DX001 (ip), vehicle: acid diluted with saline 405 % of control | dose: 5.4 mg/kg/injection, schedule: Q01DX001 (iv), vehicle: acid diluted with saline 270 % of control | dose: 6.0 mg/kg/injection, schedule: Q04DX002 (ip), vehicle: acid diluted with saline 192 % of control and 260 % of control | dose: 6.7 mg/kg/injection, schedule: Q01DX001 (ip), vehicle: acid diluted with saline 293 % of control | dose: 8.0 mg/kg/injection, schedule: Q01DX001 (ip), vehicle: acid diluted with saline 171 % of control | dose: 8.0 mg/kg/injection, schedule: Q01DX001 (iv), vehicle: acid diluted with saline 198 % of control | dose: 8.0 mg/kg/injection, schedule: Q04DX003 (ip), vehicle: saline 164 % of control and 232 % of control | dose: 9.0 mg/kg/injection, schedule: Q01DX001 (ip), vehicle: acid diluted with saline 261 % of control | dose: 9.0 mg/kg/injection, schedule: Q01DX001 (iv), vehicle: acid diluted with saline 405 % of control | dose: 10.0 mg/kg/injection, schedule: Q04DX003 (ip), vehicle: acid diluted with saline 180 % of control | dose: 15.0 mg/kg/injection, schedule: Q01DX001 (ip), vehicle: other 302 % of control | dose: 15.0 mg/kg/injection, schedule: Q01DX001 (iv), vehicle: acid diluted with saline 405 % of control | dose: 16.0 mg/kg/injection, schedule: Q01DX001 (ip), vehicle: acid diluted with saline 173 % of control | dose: 25.0 mg/kg/injection, schedule: Q01DX001 (ip), vehicle: acid diluted with saline 225 % of control | dose: 32.0 mg/kg/injection, schedule: Q01DX001 (ip), vehicle: acid diluted with saline 270 % of control | dose: 64.0 mg/kg/injection, schedule: Q01DX001 (ip), vehicle: acid diluted with saline 270 % of control

— PubChem BioAssay AID330 (DTP/NCI, 2004)
